Measured values: patent US4839386A, “Ionic bis (Dicarboxylato) palladate (II)” (Engelhard Corporation, priority 1987, dated 1989)

Tested on: S180 ascites
Experiment: Anti-Tumor Screening; S180 ascites in mice (% increase in life span, survivors)
Type: in vivo, female CFW Swiss mice
Settings: 10 mg/kg
Method: The compounds used in this invention were evaluated against S180 ascites in female CFW Swiss mice. The mice were weighed (average weight: 20 g), placed into cages (six mice to a cage) and on day zero the mice were inoculated with 0.2 ml of a freshly prepared saline suspension (0.15M NaC1) containing 1×10^7 tumor cells/ml or a total of 2×10^6 cells. This inoculum was freshly prepared using "transfer" mice which had been injected with tumor cells the previous week; it was obtained via the following steps (1) the removal of cells from the peritoneal cavity of the sacrificed transfer mouse, (2) alternate centrifugation and washing operations (2-3 times with cold saline) to remove blood and other components, and (3) dilution of the volume of the packed cell with saline (1:3). A final centrifugation was carried out at 1000 RPM over a two minute period. A cell count was made on a 2000-fold dilution of this 1:3 suspension by means of a Coulter Counter. A final dilution to 1×10^7 cells/ml was made based on the average count.
On day 1, solutions of the test compounds were prepared and each mouse in a set of six was injected with the same test compound at the same dosage. The doses were based on the average weight of the animals (cage weight). Also, beginning on day 1 two controls were employed containing six mice per control:
(1) Normal Control: This consisted solely of the carrier or diluent used in combination with the test compound; and
(2) Positive Control: This consisted solely of the known anti-tumor agent cis-[Pt(NH3)2 C12 ] in saline (8 mg/kg) to test the response of the biological system.
The effectiveness of a test compound was measured in terms of the % increase in life span (% ILS) of the test mice relative to the Normal Control (Calculated from the day of tumor inoculation, i.e., day zero). To standardize the test data and permit intercomparisons, the day of evaluation was arbitrarily taken as that day corresponding to twice the mean life span (or average day of death) of the control. This established a practical upper limit of 100% on the % ILS attainable. For calculation purposes the survivors on the day of evaluation were considered to have died on that day. The % ILS was calculated as follows:
% ILS=mean-life span of test mice/mean-life span of control
ILS values in excess of 50% were interpreted as being indicative of anti-tumor cell activity in animals whereas, values in excess of 75% indicated excellent activity.
The test compounds were evaluated in water.

Compound	% ILS [%]	Survivors
O=C([O-])C1(C(=O)[O-])CCC1.O=C([O-])C1(C(=O)[O-])CCC1.[K+].[K+].[Pd+2] [Example 6, Potassium Bis(Cyclobutanedicarboxylato)palladate(II)]	-4	0 of 6
CC(C)(C(=O)[O-])C(=O)[O-].CC(C)(C(=O)[O-])C(=O)[O-].[K+].[K+].[Pd+2] [Example 7, Potasium Bis(Dimethylmalonato)palladate(II)]	-15	0 of 6

Same assay, conditions: 12.5 mg/kg

Compound	% ILS [%]	Survivors
O=C([O-])C(=O)[O-].O=C([O-])C(=O)[O-].[K+].[K+].[Pd+2] [K2 [Pd(Oxalate)2], reference compound]	2	0 of 6
O=C([O-])C(O)C(=O)[O-].O=C([O-])C(O)C(=O)[O-].[K+].[K+].[Pd+2] [Example 4, Potassium Bis(Tartronato)palladate(II)]	1	0 of 6

Same assay, conditions: 20 mg/kg

Compound	% ILS [%]	Survivors
O=C([O-])C1(C(=O)[O-])CCC1.O=C([O-])C1(C(=O)[O-])CCC1.[K+].[K+].[Pd+2] [Example 6, Potassium Bis(Cyclobutanedicarboxylato)palladate(II)]	9	0 of 6
CC(C)(C(=O)[O-])C(=O)[O-].CC(C)(C(=O)[O-])C(=O)[O-].[K+].[K+].[Pd+2] [Example 7, Potasium Bis(Dimethylmalonato)palladate(II)]	0	0 of 6

Same assay, conditions: 25 mg/kg

Compound	% ILS [%]	Survivors
O=C([O-])C(=O)[O-].O=C([O-])C(=O)[O-].[K+].[K+].[Pd+2] [K2 [Pd(Oxalate)2], reference compound]	33	0 of 6
O=C([O-])C(O)C(=O)[O-].O=C([O-])C(O)C(=O)[O-].[K+].[K+].[Pd+2] [Example 4, Potassium Bis(Tartronato)palladate(II)]	12	0 of 6

Same assay, conditions: 40 mg/kg

Compound	% ILS [%]	Survivors
O=C([O-])C1(C(=O)[O-])CCC1.O=C([O-])C1(C(=O)[O-])CCC1.[K+].[K+].[Pd+2] [Example 6, Potassium Bis(Cyclobutanedicarboxylato)palladate(II)]	7	0 of 6
CC(C)(C(=O)[O-])C(=O)[O-].CC(C)(C(=O)[O-])C(=O)[O-].[K+].[K+].[Pd+2] [Example 7, Potasium Bis(Dimethylmalonato)palladate(II)]	-8	0 of 6

Same assay, conditions: 50 mg/kg

Compound	% ILS [%]	Survivors
O=C([O-])C(=O)[O-].O=C([O-])C(=O)[O-].[K+].[K+].[Pd+2] [K2 [Pd(Oxalate)2], reference compound]	-7	0 of 6
O=C([O-])c1ccccc1C(=O)[O-].O=C([O-])c1ccccc1C(=O)[O-].[K+].[K+].[Pd+2] [Example 5, Potassium Bis(phthalato)palladate(II)]	18	0 of 6
O=C([O-])C(O)C(=O)[O-].O=C([O-])C(O)C(=O)[O-].[K+].[K+].[Pd+2] [Example 4, Potassium Bis(Tartronato)palladate(II)]	11	0 of 6

Same assay, conditions: 80 mg/kg

Compound	% ILS [%]	Survivors
O=C([O-])C1(C(=O)[O-])CCC1.O=C([O-])C1(C(=O)[O-])CCC1.[K+].[K+].[Pd+2] [Example 6, Potassium Bis(Cyclobutanedicarboxylato)palladate(II)]	-7	0 of 6
CC(C)(C(=O)[O-])C(=O)[O-].CC(C)(C(=O)[O-])C(=O)[O-].[K+].[K+].[Pd+2] [Example 7, Potasium Bis(Dimethylmalonato)palladate(II)]	-11	0 of 6

Same assay, conditions: 100 mg/kg

Compound	% ILS [%]	Survivors
O=C([O-])C(=O)[O-].O=C([O-])C(=O)[O-].[K+].[K+].[Pd+2] [K2 [Pd(Oxalate)2], reference compound]	-9	1 of 6
O=C([O-])c1ccccc1C(=O)[O-].O=C([O-])c1ccccc1C(=O)[O-].[K+].[K+].[Pd+2] [Example 5, Potassium Bis(phthalato)palladate(II)]	38	1 of 6
O=C([O-])C(O)C(=O)[O-].O=C([O-])C(O)C(=O)[O-].[K+].[K+].[Pd+2] [Example 4, Potassium Bis(Tartronato)palladate(II)]	68	3 of 6

Same assay, conditions: 160 mg/kg

Compound	% ILS [%]	Survivors
O=C([O-])C1(C(=O)[O-])CCC1.O=C([O-])C1(C(=O)[O-])CCC1.[K+].[K+].[Pd+2] [Example 6, Potassium Bis(Cyclobutanedicarboxylato)palladate(II)]	50	0 of 6
CC(C)(C(=O)[O-])C(=O)[O-].CC(C)(C(=O)[O-])C(=O)[O-].[K+].[K+].[Pd+2] [Example 7, Potasium Bis(Dimethylmalonato)palladate(II)]	61	1 of 6

Same assay, conditions: 160 mg/kg; Table 4

Compound	Best % ILS (Dosage) [%]
O=C([O-])C1(C(=O)[O-])CCC1.O=C([O-])C1(C(=O)[O-])CCC1.[K+].[K+].[Pd+2] [Example 6, Potassium Bis(Cyclobutanedicarboxylato)palladate(II)]	50
CC(C)(C(=O)[O-])C(=O)[O-].CC(C)(C(=O)[O-])C(=O)[O-].[K+].[K+].[Pd+2] [Example 7, Potasium Bis(Dimethylmalonato)palladate(II)]	61

Same assay, conditions: 200 mg/kg

Compound	% ILS [%]	Survivors
O=C([O-])C(=O)[O-].O=C([O-])C(=O)[O-].[K+].[K+].[Pd+2] [K2 [Pd(Oxalate)2], reference compound]	-71	0 of 6
O=C([O-])c1ccccc1C(=O)[O-].O=C([O-])c1ccccc1C(=O)[O-].[K+].[K+].[Pd+2] [Example 5, Potassium Bis(phthalato)palladate(II)]	79	2 of 6
O=C([O-])C(O)C(=O)[O-].O=C([O-])C(O)C(=O)[O-].[K+].[K+].[Pd+2] [Example 4, Potassium Bis(Tartronato)palladate(II)]	76	0 of 6

Same assay, conditions: 200 mg/kg; Table 4

Compound	Best % ILS (Dosage) [%]
O=C([O-])c1ccccc1C(=O)[O-].O=C([O-])c1ccccc1C(=O)[O-].[K+].[K+].[Pd+2] [Example 5, Potassium Bis(phthalato)palladate(II)]	79
O=C([O-])C(O)C(=O)[O-].O=C([O-])C(O)C(=O)[O-].[K+].[K+].[Pd+2] [Example 4, Potassium Bis(Tartronato)palladate(II)]	76

Same assay, conditions: 320 mg/kg

Compound	% ILS [%]	Survivors
O=C([O-])C1(C(=O)[O-])CCC1.O=C([O-])C1(C(=O)[O-])CCC1.[K+].[K+].[Pd+2] [Example 6, Potassium Bis(Cyclobutanedicarboxylato)palladate(II)]	-75	0 of 6
CC(C)(C(=O)[O-])C(=O)[O-].CC(C)(C(=O)[O-])C(=O)[O-].[K+].[K+].[Pd+2] [Example 7, Potasium Bis(Dimethylmalonato)palladate(II)]	26	0 of 6

Same assay, conditions: 400 mg/kg

Compound	% ILS [%]	Survivors
O=C([O-])c1ccccc1C(=O)[O-].O=C([O-])c1ccccc1C(=O)[O-].[K+].[K+].[Pd+2] [Example 5, Potassium Bis(phthalato)palladate(II)]	25	0 of 6
O=C([O-])C(O)C(=O)[O-].O=C([O-])C(O)C(=O)[O-].[K+].[K+].[Pd+2] [Example 4, Potassium Bis(Tartronato)palladate(II)]	14	3 of 6

Tested on: S 180 Ascites
Experiment: effective dose (ED90) and therapeutic index, S 180 ascites, method of Miller and Taiter
Type: in vivo, mice
Set-up: ED90: unit not given here
Settings: LD50/ED90
Method: The effective dose (ED90), lethal dose (LD50) and therapeutic index (TI) were determined via the method of Miller and Taiter (Reported by R. A. Turner, "Screening Methods in Pharmacology", Academic Press, New York, pages 61-62 (1965)).
In this study Ed90 represents the dose which causes a 50% increase in life span (ILS) in 90% of the test animals (mice) determined graphically. The LD50 value represents the lethal dose to 50% of said animals (Therapeutic Index=LD50 /Ed90).

Compound	Therapeutic Index
O=C([O-])C1(C(=O)[O-])CCC1.O=C([O-])C1(C(=O)[O-])CCC1.[K+].[K+].[Pd+2] [Example 6, Potassium Bis(Cyclobutanedicarboxylato)palladate(II)]	1.1
O=C([O-])c1ccccc1C(=O)[O-].O=C([O-])c1ccccc1C(=O)[O-].[K+].[K+].[Pd+2] [Example 5, Potassium Bis(phthalato)palladate(II)]	2.3
O=C([O-])C(O)C(=O)[O-].O=C([O-])C(O)C(=O)[O-].[K+].[K+].[Pd+2] [Example 4, Potassium Bis(Tartronato)palladate(II)]	2.1

Same assay, conditions: dose which causes a 50% increase in life span in 90% of the test animals, determined graphically

Compound	ED90
O=C([O-])C1(C(=O)[O-])CCC1.O=C([O-])C1(C(=O)[O-])CCC1.[K+].[K+].[Pd+2] [Example 6, Potassium Bis(Cyclobutanedicarboxylato)palladate(II)]	210
CC(C)(C(=O)[O-])C(=O)[O-].CC(C)(C(=O)[O-])C(=O)[O-].[K+].[K+].[Pd+2] [Example 7, Potasium Bis(Dimethylmalonato)palladate(II)]	210
O=C([O-])c1ccccc1C(=O)[O-].O=C([O-])c1ccccc1C(=O)[O-].[K+].[K+].[Pd+2] [Example 5, Potassium Bis(phthalato)palladate(II)]	220
O=C([O-])C(O)C(=O)[O-].O=C([O-])C(O)C(=O)[O-].[K+].[K+].[Pd+2] [Example 4, Potassium Bis(Tartronato)palladate(II)]	190

Tested on: not given
Experiment: not given
Settings: not given

Compound	solubility in water [mg/mL]
O=C([O-])C1(C(=O)[O-])CCC1.O=C([O-])C1(C(=O)[O-])CCC1.[K+].[K+].[Pd+2] [Example 6, Potassium Bis(Cyclobutanedicarboxylato)palladate(II)]	200
O=C([O-])C(O)C(=O)[O-].O=C([O-])C(O)C(=O)[O-].[K+].[K+].[Pd+2] [Example 4, Potassium Bis(Tartronato)palladate(II)]	2

Tested on: not listed separately
Experiment: solubility in water at room temperature
Settings: not given

Compound	solubility in water [mg/mL]
O=C([O-])c1ccccc1C(=O)[O-].O=C([O-])c1ccccc1C(=O)[O-].[K+].[K+].[Pd+2] [Example 5, Potassium Bis(phthalato)palladate(II)]	80
